# Laboratory results taken from patent publication US8192962B2, “Processes for detecting toxic substances” (Daikin Industries, Ltd., priority 2001, dated 2012).
# System: Energy system protein genes
# Test: DNA chip mRNA expression in yeast, energy system protein genes (Table 4)
# Assay type: cell-based, Saccharomyces cerevisiae S288C
# Method: Yeast (Saccharomyces cerevisiae S288C (α SUC2mal mel gap2 CUP1)) were incubated at 25° C. on YPD medium (yeast extract 1%, polypepton 2%, glucose 2%). One of toxic chemical substances was added to the cells at logarithmic growth phase, and the cells were further incubated for two hours. Cells were cultured without any chemical substance in the same condition, and were used as control. Concentrations of the chemical substances were defined to inhibit the growth of the yeast but not lead to death.
# After completion of the incubation, the culture was centrifuged to collect the cells. To the cells, sodium acetate buffer (50 mM sodium acetate, 10 mM EDTA, 1% SDS) was added, and the mixture was shaken at 65° C. for five minutes, followed by returning to room temperature, and obtaining the supernatant, of which the procedures were repeated two times. To the supernatant, ½ amount of a solution of phenol/chloroform was added, and the mixture was centrifuged to give a supernatant, which was added with an equal amount of chloroform, and the mixture was centrifuged to give a supernatant. To the supernatant, an equal amount of isopropanol containing 0.3 M sodium acetate was added, and the mixture was allowed to stand at room temperature for 30 minutes, after which the mixture was centrifuged to give a sediment of the whole RNAs. Seventy % ethanol was added to the sediment, and the mixture was again centrifuged to give a sediment, which was then dried and dissolved in water. mRNA was isolated from the whole RNAs as followings. In view of the fact that a poly A chain is attached to the 3′ terminus of mRNA, a polynucleotide having a poly T structure which was immobilized on the surface of latex beads was used to trap the mRNA, and then the mRNA was washed and eluted with spine column (Oligotex-dT30<Super>mRNA Purification Kit, Takara). Reverse transcription of the mRNA was conducted with a reverse transcriptase (Super Script II Reverse Transcriptase; catalogue No. 18064-014, GibcoBRL) using fluorescence-labeled nucleotides to give cDNAs that were introduced with Cy3-dUTP or Cy5-dUTP during the reverse transcription.
# The labeled cDNAs were dissolved in TE buffer (10mM Tris-HCl/1 mM EDTA, pH8.0), and the solution was dropped on the DNA chip containing the whole genes of yeast (DNA Chip Research Inc. Japan) so that the cDNAs were hybridized on the DNA chip at 65° C. for over 12 hours. The fluoresces intensity of the DNA chip was read with a scanner, and the ratio relative to the fluorescence intensity resulting from the absence of chemical substance was estimated as the following, which is shown in Tables 1 to 9: […]
smiles,measurement,setting,value
"CN(C)C(=S)SSC(=S)N(C)C [(10), Tetramethylthiuram disulfide]",The level of expressed mRNA in the presence of chemical substance/The level of expressed mRNA in the absence of chemical substance,"yeast gene YJL216C, cells incubated two hours with the chemical substance",1.3
same,The level of expressed mRNA in the presence of chemical substance/The level of expressed mRNA in the absence of chemical substance,yeast gene YJR009C,1.3
same,The level of expressed mRNA in the presence of chemical substance/The level of expressed mRNA in the absence of chemical substance,yeast gene YJR048W,1.5
same,The level of expressed mRNA in the presence of chemical substance/The level of expressed mRNA in the absence of chemical substance,"yeast gene YJR121W, cells incubated two hours with the chemical substance",1.3
same,The level of expressed mRNA in the presence of chemical substance/The level of expressed mRNA in the absence of chemical substance,yeast gene YJR155W,18.8
same,The level of expressed mRNA in the presence of chemical substance/The level of expressed mRNA in the absence of chemical substance,"yeast gene YKL016C, cells incubated two hours with the chemical substance",1.8
same,The level of expressed mRNA in the presence of chemical substance/The level of expressed mRNA in the absence of chemical substance,"yeast gene YKL060C, cells incubated two hours with the chemical substance",0.8
same,The level of expressed mRNA in the presence of chemical substance/The level of expressed mRNA in the absence of chemical substance,"yeast gene YKL141W, cells incubated two hours with the chemical substance",0.5
same,The level of expressed mRNA in the presence of chemical substance/The level of expressed mRNA in the absence of chemical substance,"yeast gene YKL148C, cells incubated two hours with the chemical substance",1.7
same,The level of expressed mRNA in the presence of chemical substance/The level of expressed mRNA in the absence of chemical substance,"yeast gene YKR009C, cells incubated two hours with the chemical substance",2.1
same,The level of expressed mRNA in the presence of chemical substance/The level of expressed mRNA in the absence of chemical substance,"yeast gene YKR058W, cells incubated two hours with the chemical substance, 25° C., YPD medium",1.2
same,The level of expressed mRNA in the presence of chemical substance/The level of expressed mRNA in the absence of chemical substance,yeast gene YKR097W,3.3
same,The level of expressed mRNA in the presence of chemical substance/The level of expressed mRNA in the absence of chemical substance,"yeast gene YLL041C, cells incubated two hours with the chemical substance",0.8
same,The level of expressed mRNA in the presence of chemical substance/The level of expressed mRNA in the absence of chemical substance,"yeast gene YLR038C, cells incubated two hours with the chemical substance",0.9
same,The level of expressed mRNA in the presence of chemical substance/The level of expressed mRNA in the absence of chemical substance,"yeast gene YLR044C, cells incubated two hours with the chemical substance",1.2
same,The level of expressed mRNA in the presence of chemical substance/The level of expressed mRNA in the absence of chemical substance,"yeast gene YLR134W, cells incubated two hours with the chemical substance",0.7
same,The level of expressed mRNA in the presence of chemical substance/The level of expressed mRNA in the absence of chemical substance,"yeast gene YLR258W, cells incubated two hours with the chemical substance",1.3
same,The level of expressed mRNA in the presence of chemical substance/The level of expressed mRNA in the absence of chemical substance,"yeast gene YLR284C, cells incubated two hours with the chemical substance",0.9
same,The level of expressed mRNA in the presence of chemical substance/The level of expressed mRNA in the absence of chemical substance,"yeast gene YLR295C, cells incubated two hours with the chemical substance, 25° C., YPD medium",1.2
same,The level of expressed mRNA in the presence of chemical substance/The level of expressed mRNA in the absence of chemical substance,"yeast gene YLR304C, cells incubated two hours with the chemical substance",2.2
same,The level of expressed mRNA in the presence of chemical substance/The level of expressed mRNA in the absence of chemical substance,yeast gene YLR345W,4.0
same,The level of expressed mRNA in the presence of chemical substance/The level of expressed mRNA in the absence of chemical substance,"yeast gene YLR354C, cells incubated two hours with the chemical substance",0.9
same,The level of expressed mRNA in the presence of chemical substance/The level of expressed mRNA in the absence of chemical substance,"yeast gene YLR377C, cells incubated two hours with the chemical substance",1.6
same,The level of expressed mRNA in the presence of chemical substance/The level of expressed mRNA in the absence of chemical substance,"yeast gene YLR395C, cells incubated two hours with the chemical substance",0.9
same,The level of expressed mRNA in the presence of chemical substance/The level of expressed mRNA in the absence of chemical substance,yeast gene YML087C,4.9
same,The level of expressed mRNA in the presence of chemical substance/The level of expressed mRNA in the absence of chemical substance,"yeast gene YML120C, cells incubated two hours with the chemical substance",1.5
same,The level of expressed mRNA in the presence of chemical substance/The level of expressed mRNA in the absence of chemical substance,"yeast gene YML129C, cells incubated two hours with the chemical substance",2.2
same,The level of expressed mRNA in the presence of chemical substance/The level of expressed mRNA in the absence of chemical substance,"yeast gene YMR073C, cells incubated two hours with the chemical substance",1.2
same,The level of expressed mRNA in the presence of chemical substance/The level of expressed mRNA in the absence of chemical substance,yeast gene YMR118C,1.4
same,The level of expressed mRNA in the presence of chemical substance/The level of expressed mRNA in the absence of chemical substance,"yeast gene YMR205C, cells incubated two hours with the chemical substance",0.8
same,The level of expressed mRNA in the presence of chemical substance/The level of expressed mRNA in the absence of chemical substance,"yeast gene YMR261C, cells incubated two hours with the chemical substance",1.3
same,The level of expressed mRNA in the presence of chemical substance/The level of expressed mRNA in the absence of chemical substance,"yeast gene YMR267W, cells incubated two hours with the chemical substance, 25° C., YPD medium",0.8
same,The level of expressed mRNA in the presence of chemical substance/The level of expressed mRNA in the absence of chemical substance,"yeast gene YMR323W, cells incubated two hours with the chemical substance",1.3
same,The level of expressed mRNA in the presence of chemical substance/The level of expressed mRNA in the absence of chemical substance,yeast gene YNL071W,1.2
same,The level of expressed mRNA in the presence of chemical substance/The level of expressed mRNA in the absence of chemical substance,"yeast gene YNL202W, cells incubated two hours with the chemical substance",1.1
same,The level of expressed mRNA in the presence of chemical substance/The level of expressed mRNA in the absence of chemical substance,yeast gene YNL241C,7.4
same,The level of expressed mRNA in the presence of chemical substance/The level of expressed mRNA in the absence of chemical substance,yeast gene YNL331C,36.3
same,The level of expressed mRNA in the presence of chemical substance/The level of expressed mRNA in the absence of chemical substance,"yeast gene YOL086C, cells incubated two hours with the chemical substance",1.2
same,The level of expressed mRNA in the presence of chemical substance/The level of expressed mRNA in the absence of chemical substance,yeast gene YOL157C,4.8
same,The level of expressed mRNA in the presence of chemical substance/The level of expressed mRNA in the absence of chemical substance,yeast gene YOL165C,23.3
same,The level of expressed mRNA in the presence of chemical substance/The level of expressed mRNA in the absence of chemical substance,yeast gene YOR136W,3.4
same,The level of expressed mRNA in the presence of chemical substance/The level of expressed mRNA in the absence of chemical substance,"yeast gene YOR142W, cells incubated two hours with the chemical substance",1.5
same,The level of expressed mRNA in the presence of chemical substance/The level of expressed mRNA in the absence of chemical substance,"yeast gene YOR178C, cells incubated two hours with the chemical substance",1.7
same,The level of expressed mRNA in the presence of chemical substance/The level of expressed mRNA in the absence of chemical substance,"yeast gene YOR388C, cells incubated two hours with the chemical substance",1.4
same,The level of expressed mRNA in the presence of chemical substance/The level of expressed mRNA in the absence of chemical substance,"yeast gene YPL031C, cells incubated two hours with the chemical substance",1.4
same,The level of expressed mRNA in the presence of chemical substance/The level of expressed mRNA in the absence of chemical substance,"yeast gene YPL061W, cells incubated two hours with the chemical substance",0.7
same,The level of expressed mRNA in the presence of chemical substance/The level of expressed mRNA in the absence of chemical substance,yeast gene YPL088W,2.8
same,The level of expressed mRNA in the presence of chemical substance/The level of expressed mRNA in the absence of chemical substance,yeast gene YPL171C,50.6
same,The level of expressed mRNA in the presence of chemical substance/The level of expressed mRNA in the absence of chemical substance,yeast gene YPL240C,2.6
same,The level of expressed mRNA in the presence of chemical substance/The level of expressed mRNA in the absence of chemical substance,"yeast gene YPL262W, cells incubated two hours with the chemical substance",5.8
same,The level of expressed mRNA in the presence of chemical substance/The level of expressed mRNA in the absence of chemical substance,"yeast gene YPL275W, cells incubated two hours with the chemical substance",1.2
same,The level of expressed mRNA in the presence of chemical substance/The level of expressed mRNA in the absence of chemical substance,"yeast gene YPL276W, cells incubated two hours with the chemical substance",1.8
same,The level of expressed mRNA in the presence of chemical substance/The level of expressed mRNA in the absence of chemical substance,"yeast gene YPR048W, cells incubated two hours with the chemical substance",2.1
same,The level of expressed mRNA in the presence of chemical substance/The level of expressed mRNA in the absence of chemical substance,"yeast gene YPR184W, cells incubated two hours with the chemical substance",3.2
